Experimental data published in patent publication US11096985B2, “Antimicrobial peptides, their variants and uses” (priority 2015, dated 2021).
Where a SMILES comes first, the peptide text is derived from it. [ ]: non-standard residue; d: D form.

Legend:
[1] = system: clinical strains of Escherichia coli; assay: MIC, clinical strains of E. coli; format: cell-based; design: unit: μg/ml; conditions: microdilution, Muller Hinton broth-cation adjusted, 0.02% BSA, 0.2% acetic acid
Summary of the method: (§1)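 MIC = lowest peptide concentration showing no visual growth after 20–24 h at 37° C. Range 0.125–128 μg/ml; bacteria at 5.0×10^5 cfu/ml in MH broth, polypropylene microdilution format; yeasts in potato dextrose broth.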

[2] = system: clinical strains of Klebsiella pneumoniae; assay: MIC, clinical strains of K. pneumoniae; format: cell-based; design: unit: μg/ml; conditions: microdilution, Muller Hinton broth-cation adjusted, 0.02% BSA, 0.2% acetic acid
Summary of the method: as §1

[3] = system: clinical strains of Pseudomonas aeruginosa; assay: MIC, clinical strains of P. aeruginosa; format: cell-based; design: unit: μg/ml; conditions: microdilution, Muller Hinton broth-cation adjusted, 0.02% BSA, 0.2% acetic acid
Summary of the method: as §1

[4] = system: clinical strains of Serratia marcescens; assay: MIC, clinical strains of Serratia marcescens; format: cell-based; design: unit: µg/mL; conditions: microdilution, Muller Hinton broth-cation adjusted, 0.02% BSA, 0.2% acetic acid
Summary of the method: as §1

[5] = system: clinical strains of Proteus mirabilis; assay: MIC, clinical strains of Proteus mirabilis; format: cell-based; design: unit: µg/mL; conditions: microdilution, Muller Hinton broth-cation adjusted, 0.02% BSA, 0.2% acetic acid
Summary of the method: as §1

[6] = system: clinical strains of Enterobacter cloacae; assay: MIC, clinical strains of Enterobacter cloacae; format: cell-based; design: unit: μg/ml; conditions: microdilution, Muller Hinton broth-cation adjusted, 0.02% BSA, 0.2% acetic acid
Summary of the method: as §1

[7] = system: clinical strains of Staphylococcus aureus; assay: MIC, clinical strains of S. aureus; format: cell-based; design: unit: μg/ml; conditions: microdilution, Muller Hinton broth-cation adjusted, 0.02% BSA, 0.2% acetic acid
Summary of the method: as §1

[8] = system: clinical strains of Streptococcus pneumoniae; assay: MIC, clinical strains of Streptococcus pneumoniae; format: cell-based; design: unit: µg/mL; conditions: microdilution, Muller Hinton broth-cation adjusted, 0.02% BSA, 0.2% acetic acid
Summary of the method: as §1

[9] = system: clinical strains of Acinetobacter baumannii; assay: MIC, clinical strains of Acinetobacter baumannii; format: cell-based; conditions: microdilution, Muller Hinton broth-cation adjusted, 0.02% BSA, 0.2% acetic acid
Summary of the method: as §1

[10] = system: clinical strains of Acinetobacter johnsonii; format: cell-based; conditions: Acinetobacter johnsonii clinical strain 1; microdilution, Muller Hinton broth-cation adjusted, 0.02% BSA, 0.2% acetic acid
Method: Minimum inhibition concentrations (MICs) were determined against Escherichia coli (ATCC 25922), Staphylococcus aureus (ATCC 25923), Klebsiella pneumoniae (ATCC 10031) and Pseudomonas aeruginosa (ATCC 27853). Also clinical strains of E. coli, K. pneumoniae, E. cloacae, P. aeruginosa, Serratia marcescens, Proteus mirabilis, S. pneumoniae, Acinetobacter baumannii, A. johnsonii and S. aureus were used for MICs assays. Additionally, clinical strains of yeast including Candida albicans, C. glabrata, C. parapsilosis and C. quillermondiae were used. The susceptibility of these microorganisms to Chain peptides were determined using micro broth dilution assay. Colonies of the respective microorganism from Muller Hinton (MH) agar plates incubated overnight were suspended in MH broth media and final concentration of microorganism was adjusted to 5.0×10^5 cfu/ml. An aliquot of 10 μl of each Chain peptide, or gentamicin, tetracycline as reference antibiotics were added in differing concentrations along with 90 μl of bacterial suspension to 96 well polypropylene plates and incubated at 37° C. for 20 to 24 hours. Concentrations of Chain peptides and reference antibiotics ranged from 0.125 to 128 μg/ml and the MICs were recorded as the lowest concentration with no visual growth of bacteria. Similarly, antifungal MICs were tested in Potato dextrose broth.
Clinical strains of yeasts including Candida albicans, C. glabrata, C. parapsilosis and C. quillermondiae were also tested with the 12 Chain peptides. The minimum inhibitory concentration (MICs) varied between these peptides and are presented in Tables 4a, 4b, 4c and 5a, 5b, 5c. Peptides Chain 105, 201 and 308 are broad spectrum antimicrobials with MICs between 0.5-32 μg/ml against all the bacteria and yeasts tested, except Serratia marcescens and Proteus mirabilis, against which the MICs were between 64-128 μg/ml. Peptide Chain 306 has narrow spectrum activity against E.coli at 1 μg/ml and for the rest of the bacterial strains at >32 μg/ml (FIG. 10).

[11] = system: clinical strains of Candida albicans; assay: MIC, clinical yeast strains, Candida albicans; format: cell-based; design: unit: μg/ml
Summary of the method: as §1

[12] = system: clinical strains of C. glabrata; assay: MIC, clinical yeast strains, C. glabrata; format: cell-based, Candida glabrata; design: unit: μg/ml
Summary of the method: as §1

[13] = system: clinical strains of C. parapsilosis; assay: MIC, clinical yeast strains, C. parapsilosis; format: cell-based, Candida parapsilosis; design: unit: μg/ml
Summary of the method: as §1

[14] = system: clinical strains of C. quillermondiae; assay: MIC, clinical yeast strains, C. quillermondiae; format: cell-based; conditions: C. quillermondiae clinical yeast strain 1
Summary of the method: as §1

CC(C)C[C@@H](NC(=O)[C@H](N)CCCNC(=N)N)C(=O)N[C@H](CCCCN)C(=O)N[C@H](CCCNC(=N)N)C(=O)N[C@H](Cc1c[nH]c2ccccc12)C(=O)N[C@H](CCCNC(=N)N)C(=O)N[C@H](CC(C)C)C(=O)N[C@H](Cc1ccccc1)C(=O)N[C@H](CCCNC(=N)N)C(=O)N[C@H](CCCCN)C(=O)N[C@H](CCCNC(=N)N)C(=O)O [Chain306D] (H-[dR][dL][dK][dR][dW][dR][dL][dF][dR][dK][dR]-OH)
Minimum inhibitory concentration ([1]; Escherichia coli clinical strain 1): 1
Minimum inhibitory concentration ([1]; Escherichia coli clinical strain 2): 2
Minimum inhibitory concentration ([1]; Escherichia coli clinical strain 3): 2
Minimum inhibitory concentration ([1]; Escherichia coli clinical strain 4): 2
Minimum inhibitory concentration ([1]; Escherichia coli clinical strain 5): 2
Minimum inhibitory concentration ([2]; Klebsiella pneumoniae clinical strain 1): 128
Minimum inhibitory concentration ([2]; Klebsiella pneumoniae clinical strain 2): >128
Minimum inhibitory concentration ([2]; Klebsiella pneumoniae clinical strain 3): >128
Minimum inhibitory concentration ([2]; Klebsiella pneumoniae clinical strain 4): 64
Minimum inhibitory concentration ([2]; Klebsiella pneumoniae clinical strain 5): 64
Minimum inhibitory concentration ([3]; Pseudomonas aeruginosa clinical strain 1): 128
Minimum inhibitory concentration ([3]; Pseudomonas aeruginosa clinical strain 2): >128
Minimum inhibitory concentration ([3]; Pseudomonas aeruginosa clinical strain 3): 128
Minimum inhibitory concentration ([3]; Pseudomonas aeruginosa clinical strain 4): >128
Minimum inhibitory concentration ([3]; Pseudomonas aeruginosa clinical strain 5): 128
Minimum inhibitory concentration ([4]; Serratia marcescens clinical strain 1): >128
Minimum inhibitory concentration ([4]; Serratia marcescens clinical strain 2): >128
Minimum inhibitory concentration ([4]; Serratia marcescens clinical strain 3): >128
Minimum inhibitory concentration ([4]; Serratia marcescens clinical strain 4): >128
Minimum inhibitory concentration ([4]; Serratia marcescens clinical strain 5): >128
Minimum inhibitory concentration ([5]; Proteus mirabilis clinical strain 1): >128
Minimum inhibitory concentration ([5]; Proteus mirabilis clinical strain 2): >128
Minimum inhibitory concentration ([5]; Proteus mirabilis clinical strain 3): >128
Minimum inhibitory concentration ([5]; Proteus mirabilis clinical strain 4): >128
Minimum inhibitory concentration ([5]; Proteus mirabilis clinical strain 5): >128
Minimum inhibitory concentration ([6]; Enterobacter cloacae clinical strain 1): 64
Minimum inhibitory concentration ([6]; Enterobacter cloacae clinical strain 2): 64
Minimum inhibitory concentration ([6]; Enterobacter cloacae clinical strain 3): 32
Minimum inhibitory concentration ([6]; Enterobacter cloacae clinical strain 4): 16
Minimum inhibitory concentration ([6]; Enterobacter cloacae clinical strain 5): 16
Minimum inhibitory concentration ([7]; Staphylococcus aureus clinical strain 1): 16
Minimum inhibitory concentration ([7]; Staphylococcus aureus clinical strain 2): 32
Minimum inhibitory concentration ([7]; Staphylococcus aureus clinical strain 3): 32
Minimum inhibitory concentration ([7]; Staphylococcus aureus clinical strain 4): 16
Minimum inhibitory concentration ([7]; Staphylococcus aureus clinical strain 5): 8
Minimum inhibitory concentration ([8]; Streptococcus pneumoniae clinical strain 1): 64
Minimum inhibitory concentration ([8]; Streptococcus pneumoniae clinical strain 2): 64
Minimum inhibitory concentration ([8]; Streptococcus pneumoniae clinical strain 3): 64
Minimum inhibitory concentration ([8]; Streptococcus pneumoniae clinical strain 4): 128
Minimum inhibitory concentration ([8]; Streptococcus pneumoniae clinical strain 5): 64
Minimum inhibitory concentration ([9]; Acinetobacter baumannii clinical strain 1): 16
Minimum inhibitory concentration ([9]; Acinetobacter baumannii clinical strain 2): 32
Minimum inhibitory concentration ([9]; Acinetobacter baumannii clinical strain 3): 16
Minimum inhibitory concentration ([9]; Acinetobacter baumannii clinical strain 4): 16
Minimum inhibitory concentration ([9]; Acinetobacter baumannii clinical strain 5): 8
Minimum inhibitory concentration [10]: 16
Minimum inhibitory concentration ([11]; Candida albicans clinical yeast strain 1): 16
Minimum inhibitory concentration ([11]; Candida albicans clinical yeast strain 2): 8
Minimum inhibitory concentration ([11]; Candida albicans clinical yeast strain 3): 8
Minimum inhibitory concentration ([11]; Candida albicans clinical yeast strain 4): 16
Minimum inhibitory concentration ([11]; Candida albicans clinical yeast strain 5): 16
Minimum inhibitory concentration ([12]; C. glabrata clinical yeast strain 1): 8
Minimum inhibitory concentration ([12]; C. glabrata clinical yeast strain 2): 8
Minimum inhibitory concentration ([12]; C. glabrata clinical yeast strain 3): 16
Minimum inhibitory concentration ([12]; C. glabrata clinical yeast strain 4): 32
Minimum inhibitory concentration ([13]; C. parapsilosis clinical yeast strain 1): 8
Minimum inhibitory concentration ([13]; C. parapsilosis clinical yeast strain 2): 16
Minimum inhibitory concentration ([13]; C. parapsilosis clinical yeast strain 3): 16
Minimum inhibitory concentration ([13]; C. parapsilosis clinical yeast strain 4): 4
Minimum inhibitory concentration [14]: 4
